From the supplement of paper PMC3974653
Structures can show the parent of a compound that is named as a salt.

Columns and labels:
Conditions in all cases: (24 or 48 h)
[1] = tested on: MTT (mouse pheochromocytoma); experiment: IC50 of cell viability (ATP content); AC50 where efficacy is positive
[2] = tested on: MTT (mouse pheochromocytoma); experiment: efficacy (maximal response) relative to doxorubicin = -100% and DMSO = 0%; higher = less inhibition of viability
[3] = tested on: MTT (mouse pheochromocytoma); experiment: IC50 of cell viability (ATP content)
Method in brief: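 MTT mouse pheochromocytoma cells in white 1536-well plates were treated for 24 or 48 hrs with library compounds at 8 final concentrations from 0.5 nM to 46 µM. ATP content was measured with CellTiter-Glo luminescence, using positive-control wells as 100% and DMSO wells as 0%. IC50 came from a four-parameter logistic fit.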

| SMILES | IC50 of cell viability [1] | IC50 of cell viability [3] | efficacy [2] |
| --- | --- | --- | --- |
| COC/1=C/C=C2\C(=C/C1=O)[C@H](CCC3=CC(=C(OC)C(=C23)OC)OC)NC(C)=O [Colchicine] | 0.473 µM |  | -84.8% |
| C[C@@]12C(=O)OC(=O)[C@@]1(C)[C@H]1CC[C@H]2O1 [Cantharidin] | 1.28 µM |  | -39% |
| CO[C@@]12[C@H](COC(N)=O)C\3=C(/N1C[C@H]4N[C@@H]24)C(=O)\C(=C(N)/C3=O)C [MITOMYCIN C] | 1.5 µM |  | -34.6% |
| CCC(C(=O)O)C1OC(C(C)C(O)C(C)C(=O)C(CC)C2OC3(C=CC(O)C4(CCC(C)(C5CCC(O)(CC)C(C)O5)O4)O3)C(C)CC2C)C(C)CC1C (stereo not drawn) [NARASIN] | 1.68 µM |  | -46.7% |
| C[S+](CC[C@H](N)C(=O)O)C[C@H]1O[C@@H](n2cnc3c(N)ncnc32)[C@H](O)[C@@H]1O (stereo partly drawn) [ADEMETIONINE] | 21.1 µM |  | -49.1% |
| CCCCCCCC[N+](C)(C)CCCCCCCC [Dioctyl Dimethyl Ammonium Chloride] | 0.119 µM |  | -39.1% |
| O=[N+]([O-])c1ccc(O)c2ncccc12 [Nitroxoline] | 21.1 µM |  | -85.8% |
| Oc1cccc[c]1[Hg][Cl] [MERCUFENOL CHLORIDE] | 2.99 µM |  | -83.5% |
| N=c1ccn2c(n1)O[C@H]1[C@H](O)[C@@H](CO)O[C@H]12 [Ancitabina] | 2.37 µM |  | -68.2% |
| C[C@]12O[C@H](C[C@]1(O)CO)n1c3ccccc3c3c4c(c5c6ccccc6n2c5c31)CNC4=O [LESTAURTINIB] | 2.66 µM |  | -83.2% |
| CC(C)(C)c1ccc(C(=O)CCCN2CCC(OC(c3ccccc3)c3ccccc3)CC2)cc1 [Ebastine] | 9.44 µM |  | -49.3% |
| CC1=CC(=CC=C1N)C(\C2=CC=C(N)C=C2)=C3/C=CC(=N)C=C3 [C.I. Basic Violet 14, free base] | 2.37 µM |  | -47.4% |
| COc1cc(/C=C/C(=O)CC(=O)/C=C/c2ccc(O)c(OC)c2)ccc1O [Curcumin] | 16.8 µM |  | -79.7% |
| CCNC(=O)[C@@H]1CCCN1C(=O)[C@H](CCCNC(=N)N)NC(=O)[C@H](CC(C)C)NC(=O)[C@@H](Cc1c[nH]c2ccccc12)NC(=O)[C@H](Cc1ccc(O)cc1)NC(=O)[C@H](CO)NC(=O)[C@H](Cc1c[nH]c2ccccc12)NC(=O)[C@H](Cc1c[nH]cn1)NC(=O)[C@@H]1CCC(=O)N1 [DESLORELIN ACETATE] | 2.99 µM |  | -88.5% |
| N[C@@H](Cc1c[nH]c2ccc(O)cc12)C(=O)O [5-HYDROXY-L-TRYPTOPHAN] |  | > 46 µM |  |
| CCOC(=O)c1cc(-c2ccccc2)nc2ccc(C)cc12 [Neocinchophen] |  | > 46 µM |  |
| CC(=O)N(CC(O)CN(C(C)=O)c1c(I)c(C(=O)NC[C@@H](O)CO)c(I)c(C(=O)NC[C@@H](O)CO)c1I)c1c(I)c(C(=O)NC[C@@H](O)CO)c(I)c(C(=O)NC[C@@H](O)CO)c1I [Iodixanol] |  | > 46 µM |  |
| Cn1nnnc1SCC1=C(C(=O)O)N2C(=O)[C@@H](NC(=O)[C@H](OC=O)c3ccccc3)[C@H]2SC1 [Cefamandole nafate] |  | > 46 µM |  |
| CN(C)CCO [Deanol] |  | > 46 µM |  |
| O=C(O)CC(O)(CC(=O)O)C(=O)O [Citric acid] |  | > 46 µM |  |
| O=[N+]([O-])c1ccc(F)c([N+](=O)[O-])c1 [1-Fluoro-2,4-dinitrobenzene] |  | > 46 µM |  |

| SMILES | IC50 of cell viability [1] | IC50 of cell viability [3] | efficacy [2] |
| --- | --- | --- | --- |
| CO/N=C(/C(=O)N[C@@H]1C(=O)N2C(C(=O)OC(C)OC(C)=O)=C(COC(N)=O)CS[C@H]12)c1ccco1 (stereo partly drawn) [CEFUROXIME AXETIL] |  | > 46 µM |  |
| CN1C(=O)CC(C)(c2ccccc2)C1=O (stereo not drawn) [Methsuximide] |  | > 46 µM |  |
| COC(=O)[C@H](Cc1ccccc1)NC(=O)[C@@H](N)CC(=O)O [Aspartame] |  | > 46 µM |  |
| CCOC(=O)[C@H](CCc1ccccc1)N[C@@H](C)C(=O)N1C(=O)N(C)C[C@H]1C(=O)O [IMIDAPRIL HYDROCHLORIDE] |  | > 46 µM |  |
| Cc1nccn1CC1CCc2c(c3ccccc3n2C)C1=O (stereo not drawn) [Ondansetron] |  | > 46 µM |  |
| CCCCC/C=C/C/C=C/CCCCCCCC(=O)NC(C)c1ccccc1 (stereo not drawn) [MELINAMIDE] |  | > 46 µM |  |
| CCNC(=O)[C@H]1CCCN1C(=O)[C@H](CCCNC(=N)N)NC(=O)[C@H](CC(C)C)NC(=O)[C@H](CC(C)C)NC(=O)[C@@H](Cc1ccc(O)cc1)NC(=O)[C@H](CO)NC(=O)[C@@H](Cc1c[nH]c2ccccc12)NC(=O)[C@H](Cc1c[nH]cn1)NC(=O)[C@@H]1CCC(=O)N1 [Leuprolide acetate salt] |  | > 46 µM |  |
| CC(CC(C#N)(c1ccccc1)c1ccccc1)N(C)C (stereo not drawn) [(?)-4-Dimethylamino-2,2-diphenylvaleronitrile] |  | > 46 µM |  |
| N[S+](=O)([O-])c1ccc(Cl)c([S+](N)(=O)[O-])c1 [Clofenamide] |  | > 46 µM |  |
| N=C(Nc1ccccc1)Nc1ccccc1 [1,3-Diphenylguanidine] |  | > 46 µM |  |
| O=C(O)C(Cl)Cl [Dichloroacetic acid] |  | > 46 µM |  |
| C[S+](=O)([O-])c1ccc(C(=O)C2C(=O)CCCC2=O)c([N+](=O)[O-])c1 [Mesotrione] |  | > 46 µM |  |
| COc1ccc2nc(NC(=O)Nc3ccccc3)sc2c1 [Frentizole] |  | > 46 µM |  |
| CCOC(=O)c1ncn2c1CN(C)C(=O)c1c(I)cccc1-2 [IOMAZENIL] |  | > 46 µM |  |
| CCCCCCCCCCCCCCCCCCOCC(O)CO (stereo not drawn) [BATYL ALCOHOL] |  | > 46 µM |  |
| Clc1cccc(N2CCNCC2)c1 [1-(3-CHLOROPHENYL)PIPERAZINE] |  | > 46 µM |  |
| CC[C@]12CC(=C)[C@H]3[C@@H](CCC/4=C/C(=O)CC[C@H]34)[C@@H]1CC[C@@]2(O)C#C [ETONOGESTREL] |  | > 46 µM |  |
| c1ccc(-c2ccc(C(c3ccccc3)n3ccnc3)cc2)cc1 (stereo not drawn) [BIFONAZOLE] |  | > 46 µM |  |
| Cc1ccc(S(=O)(=O)NC(=O)NC2CCCCCCC2)cc1 [GLYOCTAMIDUM] |  | > 46 µM |  |
| C[C@@H](CCc1ccccc1)NC[C@H](O)c1ccc(O)c(C(N)=O)c1 [Labetalol hydrochloride] |  | > 46 µM |  |

Further lines, with some results ahead:

| IC50 of cell viability [1] | IC50 of cell viability [3] | SMILES | efficacy [2] |
| --- | --- | --- | --- |
| 4.22 µM |  | O=c1n(CC2CO2)c(=O)n(CC2CO2)c(=O)n1CC1CO1 (stereo not drawn) [TEROXIRONUM] | -43.7% |
| 26.6 µM |  | O=C(Nc1ccc(Cl)cc1)Nc1ccc(Cl)c(Cl)c1 [Triclocarban] | -121% |
| 11.9 µM |  | CCOC(=O)c1c(N)sc2c1CCN(Cc1ccccc1)C2 [TINORIDINE HYDROCHLORIDE] | -45.5% |
| 8.41 µM |  | Nc1ccc2cc3ccc(N)cc3nc2c1 [PROFLAVINE HEMISULFATE] | -91.5% |
| 2.11 µM |  | [Zn++].[O-]N1\C=C/C=C\C1=S.[O-]N2\C=C/C=C\C2=S [Zinc pyrithione] | -90.6% |
| 1.88 µM |  | C[N+]12CCCC[C@@H]1CCC(=C(c1cccs1)c1cccs1)C2 (stereo partly drawn) [TIQUIZIUM BROMIDE] | -51.7% |
| 2.37 µM |  | Cc1cc(-c2ccc(/N=N/c3c(S(=O)(=O)[O-])cc4cc(S(=O)(=O)[O-])cc(N)c4c3O)c(C)c2)ccc1/N=N/c1c(S(=O)(=O)[O-])cc2cc(S(=O)(=O)[O-])cc(N)c2c1O [TRYPAN BLUE] | -37.4% |
|  | > 46 µM | CC(=O)C1CCC2C3CC\C4=C\C(=O)CCC4(C)C3CCC12C (stereo not drawn) [Progestin] |  |
|  | > 46 µM | CC1CCC(NC(=O)N(CCCl)N=O)CC1 (stereo not drawn) [SEMUSTINE] |  |
|  | > 46 µM | NCCNCCNCCNCCN [Tetraethylenepentamine] |  |
|  | > 46 µM | O.O.OC1=CC2=C(C(=C1)O)C(=O)\C(=C(/O2)C3=CC(=C(O)C=C3)O)O [Quercetine dihydrate] |  |
|  | > 46 µM | CC1=C(/C=C/C(C)=C/C=C/C(C)=C/CO)C(C)(C)CCC1 [Retinol] |  |
|  | > 46 µM | COc1cc(C(=S)N2CCOCC2)cc(OC)c1OC [Tritiozina] |  |
|  | > 46 µM | CC(CN(C)C)CN1c2ccccc2Sc2ccc(C(F)(F)F)cc21 (stereo not drawn) [TRIFLUOMEPRAZINE MALEATE] |  |
|  | > 46 µM | C[C@@H](C(=O)O)c1ccc(C(=O)c2cccs2)cc1 [Suprofen] |  |
|  | > 46 µM | O=S(=O)([O-])Oc1ccc(C(c2ccc(OS(=O)(=O)[O-])cc2)c2ccccn2)cc1 [Picosulfate sodium] |  |
|  | > 46 µM | CC1(CN2CCC(n3c(=O)[nH]c4ccccc43)CC2)OCc2ccccc2-n2cccc21 (stereo not drawn) [ZALDARIDUM] |  |
|  | > 46 µM | CCOC(=O)[C@H](CCc1ccccc1)N[C@@H](C)C(=O)N1[C@H](C(=O)O)C[C@H]2CCCC[C@@H]21 [Trandolapril] |  |
|  | > 46 µM | CC(C)(C)c1ccc(C(O)CCCN2CCC(C(O)(c3ccccc3)c3ccccc3)CC2)cc1 (stereo not drawn) [TERFENADINE] |  |
|  | > 46 µM | CC(C)(C)C(=O)Oc1ccc([S+](=O)([O-])Nc2ccccc2C(=O)NCC(=O)[O-])cc1.O.O.O.O.[Na+] [SIVELESTAT SODIUM HYDRATE] |  |
|  | > 46 µM | CCOc1ccc(NC(C)=O)cc1 [Phenacetin] |  |
